These are literature values, as cited in patent US20130005740A1, “PROCESS FOR PREPARATION OF OVER-THE-COUNTER GELATIN OR PECTIN-BASED DRUG DELIVERY” (7267207 CANADA LIMITED CORPORATION, priority 2009, published 2013).

SMILES strings stand for the structures.

For the series the following is noted: unlike aspirin.

Regarding `CC(C)Cc1ccc(C(C)C(=O)O)cc1` (stereo not shown) [ibuprofen], the stability in solution result is “stable in solution”.
